Test results reported in patent US20090270435A1 (priority 2006, published 2009).
Counter-ions that a name gives are not always drawn.

Columns and labels:
ACC1 from rat liver = biological target: T1, ACC1 from rat liver (Rattus norvegicus, UniProt P11497); test: Direct inhibition of ACC1 activity (14C-bicarbonate incorporation); format: biochemical
T1 construct: The livers (for ACC1 preparation) or skeletal muscle tissue (for ACC2 preparation) are removed; from tissue; host or cells: liver of male CD rats (fasted, then fed a high sucrose diet)
In short: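 ACC1 partially purified from livers of fasted/sucrose-refed male rats by PEG and ammonium sulfate fractionation, then preincubated 30 min at 37°C with 10 mM citrate and 1.0 mM MgCl2. Reaction ran 7 min at 37°C, stopped with HCl; acid-stable radioactivity counted by scintillation; HCl-first tubes served as blanks.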

[1] = biological target: T2, ACC2 from rat skeletal muscle (Rattus norvegicus, UniProt Q1HEC0); test: Direct inhibition of ACC2 activity (14C-bicarbonate incorporation); format: biochemical
T2 construct: The livers (for ACC1 preparation) or skeletal muscle tissue (for ACC2 preparation) are removed; from tissue; host or cells: skeletal muscle of male CD rats (fasted, then fed a high sucrose diet)
Experimental: For example direct inhibition of ACC1 and ACC2 activity, for compounds of Formula (1) were determined using preparations of ACC1 from rat liver and ACC2 from rat skeletal muscle.
[1] Preparation of ACC1 and ACC2. ACC1 was obtained from rat liver and ACC2 was obtained from rat skeletal muscle based upon standard procedures such as those described by Thampy and Wakil (J. Biol. Chem. 260: 6318-6323; 1985) using the following method.
Male CD rats weighing 150-200 g are fasted for 2 days and then fed a high sucrose diet (AIN-76A rodent diet; Cat # D10001, Research Diets Inc., New Brunswick, N.J.), for 3 days at which time they are sacrificed by CO2 asphyxiation. The livers (for ACC1 preparation) or skeletal muscle tissue (for ACC2 preparation) are removed, rinsed in ice-cold phosphate-buffered saline (PBS), and homogenized in 5 volumes of homogenization buffer (50 mM potassium phosphate, pH 7.5, 10 mM EDTA, 10 mM 2-mercaptoethanol, 2 mM benzamidine, 0.2 mM phenylmethylsulfonylfluoride (PMSF), 5 mg/L each leupeptin, aprotinin, and antitrypsin) in a Waring® blender for 1 minute at 4° C. All subsequent operations are carried out at 4° C. The homogenate is made 3% with respect to polyethylene glycol (PEG) by the addition of 50% PEG solution and centrifuged at 20,000×g for 15 minutes. The resulting supernatant is adjusted to 5% PEG with the addition of 50% PEG solution and stirred for 5 minutes. The pellet (contains ACC activity) is collected by centrifugation at 20,000×g for 20 minutes, rinsed with Ice-cold doubly distilled water to remove excess PEG and re-suspended in one-fourth the original homogenate volume with homogenization buffer. Ammonium sulfate (200 g/liter) is slowly added with stirring. After 45 minutes the enzyme is collected by centrifugation for 30 minutes at 20,000×g, re-suspended in 10 ml of 50 mM HEPES, pH7.5, 0.1 mM DTT, 1.0 mM EDTA, and 10% glycerol and desalted on a Sephadex™ G-25 column (2.5 cm-x 50 cm) (Pharmacia, Piscataway N.J. now GE Healthcare) […] equilibrated with the same buffer. The desalted enzyme preparation is stored in aliquots at −70° C. Immediately prior to use, frozen ACC1 or ACC2 aliquots are thawed, diluted to 500 μg/ml in buffer containing 50 mM HEPES, pH7.5, 1.0 mM MgCl2, 10 mM tripotassium citrate, 2.0 mM dithiothreitol (DTT), and 0.75 mg/ml fatty acid-free bovine serum albumin (BSA) and pre-incubated at 37° C. for 30 minutes.
[2] Measurement of ACC inhibition. The procedures for measuring ACC1 inhibition and ACC2 inhibition are identical except for the source of the isozyme. For measurement of ACC activity and assessment of ACC inhibition, test compounds are dissolved in dimethylsulfoxide (DMSO) and 1 μL aliquots are placed in 0.5 ml polypropylene tubes. Control tubes contain 1 μL of DMSO alone. Tubes are incubated at 37° C. in a constant temperature water bath. […] The reaction is then initiated by the addition of 10 μL of preincubated ACC fraction prepared as described above. After 7 minutes the reaction is terminated by the addition of 50 μL of 6N HCl and a 150 μL aliquot of the reaction mixture is transferred to glass scintillation vials and evaporated to dryness at 90° C. for at least 1 hour. The dried vials are then cooled, 0.5 ml of water and 5.5 ml of Ready Safe liquid scintillation fluid (Beckman Coulter Inc., Fullerton, Calif.) are added, and the radioactivity is determined using a liquid scintillation counter. Tubes that received HCl before ACC served as blanks.
[3] Specificity for ACC1 vs ACC2 inhibition. The specificity of a compound for Inhibiting ACC1 vs ACC2 can be determined by comparing the concentration of test compound required to inhibit 50% of the activity contained in an aliquot of ACC1 as compared with the concentration of the same compound required to inhibit 50% of the activity of an aliquot of ACC2.

T2 sequence (Q1HEC0 17-2455): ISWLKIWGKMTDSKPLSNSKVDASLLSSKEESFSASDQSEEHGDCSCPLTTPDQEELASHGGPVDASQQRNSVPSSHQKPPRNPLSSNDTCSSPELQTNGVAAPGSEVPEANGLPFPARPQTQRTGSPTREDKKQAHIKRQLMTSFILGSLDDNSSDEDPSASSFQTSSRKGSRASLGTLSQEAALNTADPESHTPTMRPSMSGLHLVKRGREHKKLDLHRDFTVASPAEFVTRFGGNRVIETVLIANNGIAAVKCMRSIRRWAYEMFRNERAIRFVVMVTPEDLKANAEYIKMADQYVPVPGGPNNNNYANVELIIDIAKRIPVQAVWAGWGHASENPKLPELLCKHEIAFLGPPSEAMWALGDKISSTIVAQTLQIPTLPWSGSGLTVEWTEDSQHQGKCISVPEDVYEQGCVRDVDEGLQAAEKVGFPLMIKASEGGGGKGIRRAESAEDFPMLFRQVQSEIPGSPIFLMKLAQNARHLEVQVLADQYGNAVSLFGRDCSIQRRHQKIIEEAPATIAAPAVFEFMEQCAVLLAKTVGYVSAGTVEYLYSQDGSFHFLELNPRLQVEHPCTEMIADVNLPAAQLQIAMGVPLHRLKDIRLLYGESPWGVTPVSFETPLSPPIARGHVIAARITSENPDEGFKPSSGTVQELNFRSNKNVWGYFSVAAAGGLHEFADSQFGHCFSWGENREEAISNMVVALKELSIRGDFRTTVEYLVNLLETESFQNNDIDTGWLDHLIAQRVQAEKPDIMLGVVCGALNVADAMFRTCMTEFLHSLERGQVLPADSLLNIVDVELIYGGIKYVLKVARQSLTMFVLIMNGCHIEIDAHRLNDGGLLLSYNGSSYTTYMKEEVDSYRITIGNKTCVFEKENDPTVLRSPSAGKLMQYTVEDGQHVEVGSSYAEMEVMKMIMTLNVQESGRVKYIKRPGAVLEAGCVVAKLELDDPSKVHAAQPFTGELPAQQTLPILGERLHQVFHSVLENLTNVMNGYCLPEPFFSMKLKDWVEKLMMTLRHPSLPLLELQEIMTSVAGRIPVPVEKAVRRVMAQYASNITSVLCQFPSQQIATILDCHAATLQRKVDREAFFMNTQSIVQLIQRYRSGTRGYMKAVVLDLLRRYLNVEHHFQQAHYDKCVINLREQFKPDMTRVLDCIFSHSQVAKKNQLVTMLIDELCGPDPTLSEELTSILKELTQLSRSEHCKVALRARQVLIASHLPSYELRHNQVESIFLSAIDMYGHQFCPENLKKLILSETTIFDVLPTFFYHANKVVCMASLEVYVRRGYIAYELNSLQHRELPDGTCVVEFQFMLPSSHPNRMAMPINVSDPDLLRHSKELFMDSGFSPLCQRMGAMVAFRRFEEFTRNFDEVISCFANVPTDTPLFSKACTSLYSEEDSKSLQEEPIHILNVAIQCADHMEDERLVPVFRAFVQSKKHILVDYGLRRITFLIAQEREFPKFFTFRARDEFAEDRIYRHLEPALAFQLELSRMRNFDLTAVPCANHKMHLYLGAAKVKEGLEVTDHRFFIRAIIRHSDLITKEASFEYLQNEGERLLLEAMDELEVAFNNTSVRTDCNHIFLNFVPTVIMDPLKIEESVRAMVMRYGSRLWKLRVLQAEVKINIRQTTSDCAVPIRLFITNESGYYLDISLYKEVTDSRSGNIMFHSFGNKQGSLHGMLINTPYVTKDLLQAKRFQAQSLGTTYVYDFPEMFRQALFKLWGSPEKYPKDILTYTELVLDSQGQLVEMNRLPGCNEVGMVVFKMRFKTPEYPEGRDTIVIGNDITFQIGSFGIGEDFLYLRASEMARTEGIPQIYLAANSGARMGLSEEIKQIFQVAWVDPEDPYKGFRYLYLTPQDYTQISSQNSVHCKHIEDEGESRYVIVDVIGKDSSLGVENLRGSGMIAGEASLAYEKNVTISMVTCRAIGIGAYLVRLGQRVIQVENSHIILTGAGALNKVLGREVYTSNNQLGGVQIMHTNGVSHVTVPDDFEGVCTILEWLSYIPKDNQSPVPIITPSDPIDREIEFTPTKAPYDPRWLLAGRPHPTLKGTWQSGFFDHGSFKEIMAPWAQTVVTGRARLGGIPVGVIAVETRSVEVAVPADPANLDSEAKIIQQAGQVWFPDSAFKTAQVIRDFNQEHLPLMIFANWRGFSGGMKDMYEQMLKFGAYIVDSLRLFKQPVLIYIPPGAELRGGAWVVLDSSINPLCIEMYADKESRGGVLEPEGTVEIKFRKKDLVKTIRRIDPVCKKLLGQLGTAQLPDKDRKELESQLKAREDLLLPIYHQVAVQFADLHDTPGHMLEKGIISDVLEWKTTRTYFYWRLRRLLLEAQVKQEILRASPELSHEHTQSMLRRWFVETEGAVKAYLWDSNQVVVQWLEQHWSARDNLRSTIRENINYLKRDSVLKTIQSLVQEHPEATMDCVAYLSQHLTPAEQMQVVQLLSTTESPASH

Row | Compound | IC50 (ACC1 from rat liver; ACC1 from rat liver) | IC50 ([1]; ACC2 from rat skeletal muscle) | IC50 (ACC1 from rat liver; Table of Examples P1-P15) | also measured
1 | Cc1cc(C(=O)N2CCC3(CC2)CC(=O)c2cc(OC(C)C)ccc2O3)cc2cn[nH]c12 [Ex. A3, 6-isopropoxy-1′-[(7-methyl-1H-indazol-5-yl)carbonyl]spiro[chromene-2,4′-piperidin]-4(3H)-one] | 14.5 nM | 17.2 nM | – | –
2 | CCOc1ccc2c(c1)C(=O)CC1(CCN(C(=O)c3cc(C)c4[nH]ncc4c3)CC1)O2 [Ex. A4, 6-ethoxy-1′-[(7-methyl-1H-indazol-5-yl)carbonyl]spiro[chromene-2,4′-piperidin]-4(3H)-one] | 19.5 nM | 29.9 nM | – | –
3 | COc1ccc2c(c1)C(=O)CC1(CCN(C(=O)c3cc(C)c4[nH]ncc4c3)CC1)O2 [Ex. A7, 6-methoxy-1′-[(7-methyl-1H-indazol-5-yl)carbonyl]spiro[chromene-2,4′-piperidin]-4(3H)-one trifluoroacetic acid salt] | 32.5 nM | 138 nM | – | –
4 | CC(C)Oc1ccc2c(c1)C(=O)CC1(CCN(C(=O)c3cc(Cl)c4[nH]ncc4c3)CC1)O2 [Ex. B2, 1′-[(7-chloro-1H-indazol-5-yl)carbonyl]-6-isopropoxyspiro[chromene-2,4′-piperidin]-4(3H)-one] | 16.1 nM | 31.1 nM | – | –
5 | CCOc1ccc2c(c1)C(=O)CC1(CCN(C(=O)c3cc(Cl)c4[nH]ncc4c3)CC1)O2 [Ex. B3, 1′-[(7-chloro-1H-indazol-5-yl)carbonyl]-6-ethoxyspiro[chromene-2,4′-piperidin]-4(3H)-one] | 21.4 nM | 34.3 nM | – | –
6 | Cc1cc2c(cc1Cl)C(=O)CC1(CCN(C(=O)c3cc(Cl)c4[nH]ncc4c3)CC1)O2 [Ex. B4, 6-chloro-7-methyl-1′-[(7-chloro-1H-indazol-5-yl)carbonyl]spiro[chromene-2,4′-piperidin]-4(3H)-one] | 56.8 nM | 127 nM | – | –
7 | COc1ccc2c(c1)C(=O)CC1(CCN(C(=O)c3cc(Cl)c4[nH]ncc4c3)CC1)O2 [Ex. B5, 1′-[(7-chloro-1H-indazol-5-yl)carbonyl]-6-methoxyspiro[chromene-2,4′-piperidin]-4(3H)-one] | 81 nM | 231 nM | – | –
8 | Cc1cc2c(cc1Cl)C(=O)CC1(CCN(C(=O)c3cccc(-c4cc[nH]n4)c3)CC1)O2 [Ex. M3, 6-chloro-7-methyl-1′-[3-(1H-pyrazol-3-yl)benzoyl]spiro[chromene-2,4′-piperidin]-4(3H)-one] | – | – | – | IC50 (ACC1 from rat liver; Table of Examples M1-M36): 105 nM; IC50 ([1]; Table of Examples M1-M36): 434 nM
9 | N#Cc1ccc2c(c1)C(=O)CC1(CCN(C(=O)c3cccc(-c4cc[nH]n4)c3)CC1)O2 [Ex. M33, 4-oxo-1′-[3-(1H-pyrazol-3-yl)benzoyl]3,4-dihydrospiro[chromene-2,4′-piperidine]-6-carbonitrile] | – | – | – | IC50 (ACC1 from rat liver; Table of Examples M1-M36): 816 nM; IC50 ([1]; Table of Examples M1-M36): 1860 nM
10 | CCOc1ccc2c(c1)C(=O)CC1(CCN(C(=O)c3cccc(-c4cc[nH]n4)c3)CC1)O2 [Ex. N2, 6-ethoxy-1′-[3-(1H-pyrazol-3-yl)benzoyl]spiro[chromene-2,4′-piperidin]-4(3H)-one] | 43.2 nM | 91.7 nM | – | –
11 | CC(C)Oc1ccc2c(c1)C(=O)CC1(CCN(C(=O)c3cccc(-c4cc[nH]n4)c3)CC1)O2 [Ex. N3, 6-isopropoxy-1′-[3-(1H-pyrazol-3-yl)benzoyl]spiro[chromene-2,4′-piperidin]-4(3H)-one] | 48.3 nM | 54.8 nM | – | –
12 | Cc1cc2c(cc1C)C(=O)CC1(CCN(C(=O)c3cc(-c4ccnn4C)ccc3Cl)CC1)O2 [Ex. P10, 1′-[2-chloro-5-(1-methyl-1H-pyrazol-5-yl)benzoyl]-6,7-dimethylspiro[chromene-2,4′-piperidin]-4(3H)-one] | – | – | < 3000 nM | –
13 | Cc1cc2c(cc1C)C(=O)CC1(CCN(C(=O)c3cccc(-n4cccn4)c3)CC1)O2 [Ex. P11, 6,7-Dimethyl-1′-[3-(1H-pyrazol-1-yl)benzoyl]spiro[chromene-2,4′-piperidin]-4(3H)-one] | – | – | 399 nM | –
14 | Cc1cc2c(cc1C)C(=O)CC1(CCN(C(=O)c3cccc(-c4ncc[nH]4)c3)CC1)O2 [Ex. P12, 1′-[3-(1H-imidazol-2-yl)benzoyl]-6,7-dimethylspiro[chromene-2,4′-piperidin]-4(3H)-one trifluoroacetic acid salt] | – | – | 73.9 nM | –
15 | Cc1cc2c(cc1C)C(=O)CC1(CCN(C(=O)c3cccc(-c4ccncn4)c3)CC1)O2 [Ex. P13, 6,7-Dimethyl 1′-[3-(pyrimidin-4-yl)benzoyl]spiro[chromene-2,4′-piperidin]-4(3H)-one] | – | – | < 3000 nM | –
16 | Cc1nc(-c2cccc(C(=O)N3CCC4(CC3)CC(=O)c3cc(C)c(C)cc3O4)c2)no1 [Ex. P14, 6,7-Dimethyl-1′-[3-(5-methyl-1,2,4-oxadiazol-3-yl)benzoyl]spiro[chromene-2,4′-piperidin]-4(3H)-one] | – | – | < 3000 nM | –
17 | CCc1nc(-c2cccc(C(=O)N3CCC4(CC3)CC(=O)c3cc(C)c(C)cc3O4)c2)no1 [Ex. P15, 6,7-Dimethyl-1′-[3-(5-ethyl-1,2,4-oxadiazol-3-yl)benzoyl]spiro[chromene-2,4′-piperidin]-4(3H)-one] | – | – | 7030 nM | –
18 | Cc1cc2c(cc1C)C(=O)CC1(CCN(C(=O)c3ccc4c(c3)CCC(=O)N4)CC1)O2 [L44, 6,7-dimethyl-1′-[(2-oxo-1,2,3,4-tetrahydroquinolin-6-yl)carbonyl]spiro[chromene-2,4′-piperidin]-4(3H)-one] | < 3000 nM | – | – | –
19 | CS(=O)(=O)c1ccc2c(c1)C(=O)CC1(CCN(C(=O)c3cccc(-c4cc[nH]n4)c3)CC1)O2 [M20, 6-(methylsulfonyl)-1′-[3-(1H-pyrazol-3-yl)benzoyl]spiro[chromene-2,4′-piperidin]-4(3H)-one] | – | – | – | IC50 (ACC1 from rat liver; Table of Examples M1-M36): 434 nM
20 | Cc1cc2c(c(C)c1Cl)C(=O)CC1(CCN(C(=O)c3cccc(-c4cc[nH]n4)c3)CC1)O2 [M22, 6-chloro-5,7-dimethyl-1′-[3-(1H-pyrazol-3-yl)benzoyl]spiro[chromene-2,4′-piperidin]-4(3H)-one] | – | – | – | IC50 (ACC1 from rat liver; Table of Examples M1-M36): 452 nM
